± gives the standard deviation of the averaged measurements.
Legend:
Experiment in all cases: relative viability vs DMSO control (72 h) (fraction); higher = more viable cells
SK-ES-1 = system: SK-ES-1
Method in brief: (§1)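 ATPLite readings, expressed as percent growth and averaged over up to triplicate wells, provided relative viability. Before reading, sarcoma cell lines seeded in 384-well plates to reach 80–90% confluence received 2.5 µl of serially diluted compound after 24 h, from source plates of 10 mM to 0.0002 mM. Plates were held 72 h at 37 °C, 5% CO2, with 0.1% DMSO as vehicle and a 5 µM positive control. The data were rescaled to 1 for full and 0 for none.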

G401 = system: G401
Method in brief: as §1

A204 = system: A204
Method in brief: as §1

SW684 = system: SW684
Method in brief: as §1

MES-SA = system: MES-SA
Method in brief: as §1

VA-ES-BJ = system: VA-ES-BJ
Method in brief: as §1

SK-LMS-1 = system: SK-LMS-1
Method in brief: as §1

RD = system: RD
Method in brief: as §1

KHOS-NP = system: KHOS-NP
Method in brief: as §1

SYO-1 = system: SYO-1
Method in brief: as §1

HS729 = system: HS729
Method in brief: as §1

SW872 = system: SW872
Method in brief: as §1

CO[C@H]1C[C@@H]2CC[C@@H](C)[C@@](O)(O2)C(=O)C(=O)N2CCCC[C@H]2C(=O)O[C@H]([C@H](C)C[C@@H]2CC[C@@H](O)[C@H](OC)C2)CC(=O)[C@H](C)/C=C(\C)[C@@H](O)[C@@H](OC)C(=O)[C@H](C)C[C@H](C)/C=C/C=C/C=C/1C [Rapamycin]
Conditions	relative viability
A204, 0.00017 µM	0.894 ± 0.049
A204, 0.00051 µM	0.707 ± 0.0079
A204, 0.00152 µM	0.614 ± 0.042
A204, 0.00457 µM	0.542 ± 0.022
A204, 0.01372 µM	0.513 ± 0.018
A204, 0.04115 µM	0.499 ± 0.013
A204, 0.1235 µM	0.489 ± 0.024
A204, 0.3704 µM	0.464 ± 0.024
A204, 1.111 µM	0.453 ± 0.017
A204, 3.333 µM	0.425 ± 0.027
A204, 10 µM	0.408 ± 0.016
G401, 0.00017 µM	0.901 ± 0.018
G401, 0.00051 µM	0.856 ± 0.025
G401, 0.00152 µM	0.815 ± 0.07
G401, 0.00457 µM	0.784 ± 0.077
G401, 0.01372 µM	0.759 ± 0.072
G401, 0.04115 µM	0.717 ± 0.062
G401, 0.1235 µM	0.687 ± 0.035
G401, 0.3704 µM	0.676 ± 0.035
G401, 1.111 µM	0.634 ± 0.015
G401, 3.333 µM	0.613 ± 0.016
G401, 10 µM	0.589 ± 0.0087
HS729, 0.00017 µM	0.98 ± 0.046
HS729, 0.00051 µM	0.999 ± 0.064
HS729, 0.00152 µM	1.01 ± 0.041
HS729, 0.00457 µM	0.972 ± 0.04
HS729, 0.01372 µM	0.97 ± 0.07
HS729, 0.04115 µM	0.926 ± 0.031
HS729, 0.1235 µM	0.962 ± 0.033
HS729, 0.3704 µM	0.877 ± 0.04
HS729, 1.111 µM	0.918 ± 0.031
HS729, 3.333 µM	0.891 ± 0.01
HS729, 10 µM	0.92 ± 0.035
KHOS-NP, 0.00017 µM	1.04 ± 0.015
KHOS-NP, 0.00051 µM	1.05 ± 0.016
KHOS-NP, 0.00152 µM	1.07 ± 0.017
KHOS-NP, 0.00457 µM	1.07 ± 0.023
KHOS-NP, 0.01372 µM	1.06 ± 0.012
KHOS-NP, 0.04115 µM	1.06 ± 0.031
KHOS-NP, 0.1235 µM	1.03 ± 0.014
KHOS-NP, 0.3704 µM	1.04 ± 0.034
KHOS-NP, 1.111 µM	1.05 ± 0.017
KHOS-NP, 3.333 µM	1.02 ± 0.031
KHOS-NP, 10 µM	0.882 ± 0.027
MES-SA, 0.00017 µM	0.876 ± 0.026
MES-SA, 0.00051 µM	0.648 ± 0.015
MES-SA, 0.00152 µM	0.469 ± 0.029
MES-SA, 0.00457 µM	0.424 ± 0.012
MES-SA, 0.01372 µM	0.384 ± 0.02
MES-SA, 0.04115 µM	0.362 ± 0.014
MES-SA, 0.1235 µM	0.363 ± 0.0042
MES-SA, 0.3704 µM	0.353 ± 0.011
MES-SA, 1.111 µM	0.352 ± 0.0086
MES-SA, 3.333 µM	0.34 ± 0.0089
MES-SA, 10 µM	0.349 ± 0.025
RD, 0.00017 µM	0.95 ± 0.022
RD, 0.00051 µM	0.87 ± 0.044
RD, 0.00152 µM	0.808 ± 0.026
RD, 0.00457 µM	0.702 ± 0.048
RD, 0.01372 µM	0.629 ± 0.032
RD, 0.04115 µM	0.579 ± 0.033
RD, 0.1235 µM	0.592 ± 0.05
RD, 0.3704 µM	0.573 ± 0.038
RD, 1.111 µM	0.588 ± 0.028
RD, 3.333 µM	0.605 ± 0.058
RD, 10 µM	0.568 ± 0.058
SK-ES-1, 0.00017 µM	0.953 ± 0.036
SK-ES-1, 0.00051 µM	0.866 ± 0.031
SK-ES-1, 0.00152 µM	0.737 ± 0.034
SK-ES-1, 0.00457 µM	0.63 ± 0.035
SK-ES-1, 0.01372 µM	0.564 ± 0.028
SK-ES-1, 0.04115 µM	0.554 ± 0.046
SK-ES-1, 0.1235 µM	0.51 ± 0.013
SK-ES-1, 0.3704 µM	0.512 ± 0.036
SK-ES-1, 1.111 µM	0.5 ± 0.016
SK-ES-1, 3.333 µM	0.482 ± 0.018
SK-ES-1, 10 µM	0.457 ± 0.012
SK-LMS-1, 0.00017 µM	0.924 ± 0.018
SK-LMS-1, 0.00051 µM	0.758 ± 0.013
SK-LMS-1, 0.00152 µM	0.697 ± 0.033
SK-LMS-1, 0.00457 µM	0.621 ± 0.042
SK-LMS-1, 0.01372 µM	0.58 ± 0.034
SK-LMS-1, 0.04115 µM	0.567 ± 0.017
SK-LMS-1, 0.1235 µM	0.551 ± 0.023
SK-LMS-1, 0.3704 µM	0.526 ± 0.011
SK-LMS-1, 1.111 µM	0.554 ± 0.034
SK-LMS-1, 3.333 µM	0.522 ± 0.027
SK-LMS-1, 10 µM	0.5 ± 0.03
SW684, 0.00017 µM	0.9947 ± 0.0099
SW684, 0.00051 µM	0.936 ± 0.092
SW684, 0.00152 µM	0.812 ± 0.024
SW684, 0.00457 µM	0.743 ± 0.0097
SW684, 0.01372 µM	0.678 ± 0.04
SW684, 0.04115 µM	0.681 ± 0.038
SW684, 0.1235 µM	0.718 ± 0.056
SW684, 0.3704 µM	0.718 ± 0.03
SW684, 1.111 µM	0.75 ± 0.018
SW684, 3.333 µM	0.752 ± 0.049
SW684, 10 µM	0.682 ± 0.067
SW872, 0.00017 µM	0.867 ± 0.059
SW872, 0.00051 µM	0.787 ± 0.055
SW872, 0.00152 µM	0.729 ± 0.054
SW872, 0.00457 µM	0.659 ± 0.061
SW872, 0.01372 µM	0.602 ± 0.038
SW872, 0.04115 µM	0.565 ± 0.015
SW872, 0.1235 µM	0.543 ± 0.016
SW872, 0.3704 µM	0.548 ± 0.033
SW872, 1.111 µM	0.561 ± 0.019
SW872, 3.333 µM	0.567 ± 0.033
SW872, 10 µM	0.553 ± 0.052
SYO-1, 0.00017 µM	0.954 ± 0.064
SYO-1, 0.00051 µM	0.893 ± 0.038
SYO-1, 0.00152 µM	0.875 ± 0.034
SYO-1, 0.00457 µM	0.836 ± 0.035
SYO-1, 0.01372 µM	0.826 ± 0.022
SYO-1, 0.04115 µM	0.792 ± 0.022
SYO-1, 0.1235 µM	0.767 ± 0.022
SYO-1, 0.3704 µM	0.734 ± 0.016
SYO-1, 1.111 µM	0.706 ± 0.017
SYO-1, 3.333 µM	0.683 ± 0.023
SYO-1, 10 µM	0.66 ± 0.02
VA-ES-BJ, 0.00017 µM	0.942 ± 0.012
VA-ES-BJ, 0.00051 µM	0.814 ± 0.091
VA-ES-BJ, 0.00152 µM	0.723 ± 0.083
VA-ES-BJ, 0.00457 µM	0.584 ± 0.066
VA-ES-BJ, 0.01372 µM	0.476 ± 0.01
VA-ES-BJ, 0.04115 µM	0.451 ± 0.013
VA-ES-BJ, 0.1235 µM	0.435 ± 0.017
VA-ES-BJ, 0.3704 µM	0.427 ± 0.02
VA-ES-BJ, 1.111 µM	0.444 ± 0.015
VA-ES-BJ, 3.333 µM	0.446 ± 0.0079
VA-ES-BJ, 10 µM	0.43 ± 0.013

— the supplement of paper PMC10883282
